# Experiments:
# [1] = test system: rats; assay: Rotarod running performance of rats after I.P. tubocurarine (myasthenia like phenotype); format: in vivo, rat; details: 20 mg/kg I.P., 2 hrs before tubocurarine 0.13 mg/kg
# Experimental: FIGS. 9A-9B. […] FIG. 9A illustrates the design of the experiments. Prior to Day One the animals had been familiarized to the rotarod in three training sessions distributed over two days.
# (§1) In both series of experiments, running performance was tested on a rotarod using a protocol where the rod was accelerated gradually over a 5 min period, and the running time and covered distance before falling off the rod were measured. […] Experiments with tubocurarine were carried out over two days, and on each day the effect of tubocurarine on running performance was tested. On the first day only tubocurarine was injected. […] On the second day, the animals were first allowed to run on the rotarod, and all animals performed normally. […] The allocation of the animals into the two groups (C8 or sham) was random and unknown to the experimenter (blinded experimental design).
# In the first series of in vivo experiments, myasthenia gravis was simply mimicked by I.P. injection of tubocurarine (0.13 mg/kg) in animals that had been familiarized to running on the rotarod. On the first of two consecutive days, tubocurarine was injected I.P. and the running performance of the animal was tested 21 minutes after this injection. On the second day of experimentation, the animals first performed a test run to ensure that they were no longer affected by the tubocurarine injected the day before. […]
# [2] = test system: rat soleus muscles; assay: Mg2+ concentration required to depress nerve-stimulated force by 50% (Kd,Mg2+), combination with 3,4-AP
# Experimental: FIGS. 6A-6E. […] Muscles from 4-week-old rats were stimulated to contract by activating the motor nerve with short duration pulses in field stimulation. Muscles contracted every 10 min for 2 s in response to 30 Hz stimulation. Four different experimental conditions were used. […] C) similar to A) but this muscle had been pre-incubated with 3,4-AP. […] The force integral (AUC) was determined at each extracellular Mg^2+ concentration. AUC was plotted against Mg^2+ concentration and the data was fitted to a sigmoidal function. This provided the extracellular Mg^2+ concentration that was required to reduce the nerve-stimulated force to 50% (Mg50) under the four different conditions (see Table 5).
# While the use of tubocurarine mimics conditions with reduced neuromuscular transmission due to post-synaptic dysfunction (myasthenia gravis, neuromuscular blockade), the experiments with elevated extracellular Mg^2+ mimics conditions with pre-synaptic dysfunction akin to a range of neuromuscular disorders including Lambert Eaton syndrome, motor neuron disorders and polyneuropathy. Patients with Lambert Eaton syndrome are commonly treated with inhibitors of voltage gated K^+ channels such as 3,4-diaminopyridine (3,4-AP). Based on this it was determined whether recovery of nerve-stimulated force at elevated extracellular Mg^2+ with CIC-1 inhibiting compounds could be added to force recovery with 3,4-AP. […] FIG. 6A-D show recordings of nerve-stimulated force production at different Mg^2+ concentrations when tested under these four experimental conditions. […] To quantify the effect of compounds on Mg^2+ sensitivity the force at the different Mg^2+ concentrations was determined. In plots of nerve-stimulated force against Mg^2+ concentration (FIG. 6E) the Kd,Mg^2+ was determined by fitting four parameter sigmoidal function to the data. Kd, Mg^2+ for the different compounds have been collected in Table 5.
# [3] = test system: rat soleus muscles; format: cell-based; details: 10 and 25 μM; 1 μM μ-conotoxin GiiiB
# [4] = test system: rats; assay: Rotarod running performance in passive immunization (MAB35) rat model of myasthenia gravis; format: in vivo
# Experimental: FIG. 10. […] Prior to I.P. injection of MAB35 the animals had been familiarized to the rotarod over three training sessions distributed over two days. […] After this treatment performance was monitored every second hour. *Indicates significant different as evaluated using student t-test.
# as §1
# In experiments with MAB35, animals were first familiarized with the rotarod over two consecutive days and then injected I.P. with MAB35. After injection, rotarod performance was then again monitored regularly over the consecutive two days. […] A considerable number of animals, however, became moribund failing to walk and they had altered ventilation (rapid) and pronounced ptosis. These animals were not included in experiments. […]
# [5] = biological target: rat soleus muscles; assay: Tubocurarine concentration required to depress nerve-stimulated force by 50% (Kd,tub), combination with acetylcholinesterase inhibitors
# Experimental: FIGS. 5A-5E. […] Muscles from 4-week-old rats were stimulated to contract by activating the motor nerve with short duration pulses in field stimulation. Muscles contracted every 10 min for 2 s in response to 30 Hz stimulation. Four different experimental conditions were used. […] After this pre-incubation, increasing concentrations of tubocurarine were added to the bath solutions with 60 min (corresponding to six contractions) between each increase in tubocurarine. […] FIG. 5C similar to FIG. 5A but this muscle had been pre-incubated with neostigmine. […] The force integral (AUC) was determined at each tubocurarine concentration. Such AUC determinations were plotted against tubocurarine concentration for each muscle.
# CIC-1 is a novel target in treatment of neuromuscular complications and it was therefore explored whether this approach for symptomatic treatment could be used in combination with existing symptomatic treatment approaches. In myasthenia gravis, which in isolated muscles was mimicked by tubocurarine, the symptoms of muscle fatigue are most commonly treated with inhibitors of acethylcholineesterase of which neostigmine and pyridostigmine are examples. Also, neostigmine is the most commonly used reversal agent of neuromuscular blocked after surgery. […] FIG. 5A-D show recordings of nerve-stimulated force production at different tubocurarine concentrations when tested under the four experimental conditions. […] To quantify the effect of compounds on tubocurarine sensitivity, the force at the different tubocurarine concentrations was determined. In plots of nerve-stimulated force against tubocurarine concentration (FIG. 5E) Kd,tub was determined by fitting four parameter sigmoidal functions to the data and the Kd,tub for the different compounds have been collected in Table 4.
# [6] = biological target: T1, CIC-1 ion channels (Homo sapiens, UniProt P35523); assay: Resting membrane conductance (Gm), three-electrode technique, human muscle: Kd for CIC-1 inhibition; format: cell-based; details: concentration that reduced Gm by 50%
# T1 construct: Isolated soleus muscles from adult rats or human abdominal muscles preparations were placed in a chamber; from tissue; host or cells: human abdominal muscle from patients
# [7] = test system: isolated human muscles; details: 150 μM; elevated K+ and TTX
# [8] = test system: isolated rat soleus muscles; assay: Recovery of nerve-stimulated force in isolated rat soleus muscles exposed to sub-maximal tubocurarine; details: Rattus norvegicus, 40 min; read-out: 50 μM % change after addition
# Experimental: Experiments were performed using rat soleus muscles from either young (4-wk-old) or adult Wistar rats (12-14-week-old). Animal handling, killing and isolation of muscle is described elsewhere All experiments were performed using normal Krebs-Ringer bicarbonate solution (NKR). In solutions with elevated Mg^2+, MgCl2 was added to NKR-solution causing minor increases in osmolarity and ionic strength. In solutions with elevated K^+, 4 mM NaCl was replaced by 4 mM KCl in the NKR.
# In all contraction experiments, isometric force production was determined and force produced during contractions was quantified by measuring the integral of the force response (AUC). Stimulation and force recordings have been described elsewhere. […] In these latter experiments, extracellular recordings of action potentials (M-waves) could be measured without temporal overlap with stimulation artefacts.
# The aim was to find compounds that by inhibition of CIC-1 channels can recover nerve-stimulated force under conditions of fatigue including conditions where fatigue is caused by compromised neuromuscular transmission. Neuromuscular transmission dysfunction can develop because of both pre- and/or post-synaptic complications in connection with a disorder or as part of neuromuscular blockade during/after surgery. In the initial series of drug testing, experiments were performed with isolated muscles in the presence of sub-maximal ACh receptor antagonist tubocurarine. Since the inclusion of tubocurarine caused a partial loss of neuromuscular transmission this experiment mimics the conditions in myasthenia gravis and neuromuscular blockade. To mimic conditions with pre-synaptic complication (Lambert Eaton syndrome, motor neuron disorder, polyneuropathy) the intact nerve-muscle preparations were incubated at elevated extracellular Mg^2+, which is known to suppress release of ACh from nerve terminals of motor neurons.
# To identify CIC-1 inhibitors that could be used for treatment of neuromuscular disorders we repeated the experiment shown in FIG. 2A but instead of adding 9-AC we added the compounds of interest in different concentrations within the range from 10 to 500 μM. […] For comparison with the muscle only exposed to tubocurarine (grey trace), the two traces have been overlaid. […] For comparison, muscles only exposed to tubocurarine have been included. The dotted line indicates the recovery of force with C8 when compared to the force production before its addition. This value was used in Table 1 for evaluation of the efficacy of the different compounds in recovering force.
# T1 sequence (P35523 whole entry): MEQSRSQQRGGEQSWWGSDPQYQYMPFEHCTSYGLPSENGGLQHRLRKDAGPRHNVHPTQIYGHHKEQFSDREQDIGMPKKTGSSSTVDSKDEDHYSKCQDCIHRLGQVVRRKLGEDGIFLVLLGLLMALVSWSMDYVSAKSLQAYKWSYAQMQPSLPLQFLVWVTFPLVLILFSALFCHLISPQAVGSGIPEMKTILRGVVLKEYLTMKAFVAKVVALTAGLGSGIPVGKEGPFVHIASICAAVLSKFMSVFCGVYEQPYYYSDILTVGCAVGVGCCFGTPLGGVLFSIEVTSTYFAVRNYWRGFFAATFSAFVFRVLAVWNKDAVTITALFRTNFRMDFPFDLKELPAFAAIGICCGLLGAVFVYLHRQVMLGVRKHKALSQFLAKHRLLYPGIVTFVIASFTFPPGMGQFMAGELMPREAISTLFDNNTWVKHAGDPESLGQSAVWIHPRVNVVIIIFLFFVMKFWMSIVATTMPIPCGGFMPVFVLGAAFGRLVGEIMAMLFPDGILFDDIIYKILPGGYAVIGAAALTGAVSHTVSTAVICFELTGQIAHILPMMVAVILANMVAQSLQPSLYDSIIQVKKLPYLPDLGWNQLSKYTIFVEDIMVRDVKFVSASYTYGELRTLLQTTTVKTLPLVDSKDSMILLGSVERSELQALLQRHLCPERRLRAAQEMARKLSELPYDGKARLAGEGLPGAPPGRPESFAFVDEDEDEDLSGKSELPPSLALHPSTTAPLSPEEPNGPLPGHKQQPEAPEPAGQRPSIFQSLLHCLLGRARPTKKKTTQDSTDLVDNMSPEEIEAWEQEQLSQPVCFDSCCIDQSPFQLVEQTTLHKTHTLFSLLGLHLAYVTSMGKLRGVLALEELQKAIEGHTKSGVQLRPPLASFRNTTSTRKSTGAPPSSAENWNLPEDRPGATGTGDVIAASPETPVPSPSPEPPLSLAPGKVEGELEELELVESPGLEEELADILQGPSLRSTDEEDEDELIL
structure (smiles),measurement,setting,value
"C[C@H](Oc1ccc(Br)cc1)C(=O)O [Compound C8, (2S)-2-(4-bromophenoxy)propanoic acid]",increase in distance run on the second day compared to the first day,[1],around 150%
same,effect of combination on recovery of neuromuscular transmission,"[2]; C8 and 3,4-diaminopyridine together",unexpected synergistic effect
same,Kd,"[2]; Compound (50 μM) + 3,4-AP (10 μM)",7800 ± 500 µM
same,Kd,[2]; Compound (50 μM) alone,4000 ± 100 µM
same,EPP amplitude,[3],significantly larger EPPs
same,rotarod performance after injection,[4]; 20 mg/kg,decline was reduced
same,rotarod performance after injection,[4]; 30 mg/kg,clear recovery of performance
same,Kd,[5]; Compound (50 μM) + Neostigmine (10 nM),0.218 ± 0.018 µM
same,Kd,[5]; Compound (50 μM) + Pyridostigmine (100 nM),0.186 ± 0.005 µM
same,Kd,[5]; Compound (50 μM) alone,0.177 ± 0.007 µM
same,Kd,[6],5.5 µM
same,contractile force,[7],markedly recovery
same,activation at 50 µM,[8],16%

# From patent publication US20190183812A1, “Compounds For The Treatment Of Neuromuscular Disorders” (NMD PHARMA A/S, priority 2017, published 2019)
